In US10974081B2, “Treatment and prevention of sleep disorders” (Purdue Pharma L.P., priority 2016, dated 2021):
Where “and” joins values, the source holds several entries; their conditions need not be identical. Equal values may be shown once.

What was measured:
[1] = test system: subjects with insomnia disorder; assay: Phase 1 crossover polysomnography (PSG) study in subjects with insomnia disorder; assay type: in vivo, human
rats = assay: EEG/EMG sleep-wake analysis, single administration compared to zolpidem; assay type: in vivo, rat
[2] = Change from Baseline, 10 mg oral
[3] = Compound (1D) versus placebo, 10 mg oral
[4] = Treatment Period 1 Night 1, 10 mg oral
[5] = Treatment Period 1 Night 2, 10 mg oral
[6] = Treatment Period 2 Night 1, 10 mg oral
[7] = Treatment Period 2 Night 2, 10 mg oral
[8] = Treatment Period Mean, 10 mg oral

SMILES: O=C(O)c1nc2ccccc2n([C@H]2C[C@H]3CCC[C@@H](C2)N3C2CC3CCCC(C3)C2)c1=O (stereo partly drawn) [Compound (1D)]
- Latency to Persistent Sleep (LPS) LSM (STDE) [1, 2]: −32.33 (4.580) Minutes
- Latency to Persistent Sleep (LPS) Maximum [1, 2]: 8.75 min
- Latency to Persistent Sleep (LPS) Mean (SD) [1, 2]: −29.918 (23.3435) Minutes
- Latency to Persistent Sleep (LPS) Median [1, 2]: -27.250 min
- Latency to Persistent Sleep (LPS) Minimum [1, 2]: -87.75 min
- Total Sleep Time (TST) LSM (STDE) [1, 2]: 69.44 (12.870) Minutes
- Total Sleep Time (TST) Maximum [1, 2]: 198.00 min
- Total Sleep Time (TST) Mean (SD) [1, 2]: 69.955 (49.2950) Minutes
- Total Sleep Time (TST) Median [1, 2]: 73.750 min
- Total Sleep Time (TST) Minimum [1, 2]: -59.80 min
- Wake After Sleep Onset (WASO) LSM (STDE) [1, 2]: −50.04 (5.990) Minutes
- Wake After Sleep Onset (WASO) Maximum [1, 2]: 29.50 min
- Wake After Sleep Onset (WASO) Mean (SD) [1, 2]: −50.545 (42.1544) Minutes
- Wake After Sleep Onset (WASO) Median [1, 2]: -47.250 min
- Wake After Sleep Onset (WASO) Minimum [1, 2]: -185.50 min
- Latency to Persistent Sleep (LPS) Drug Effect Difference (LSM (STDE)) [1, 3]: −17.44 (6.292) Minutes
- Total Sleep Time (TST) Drug Effect Difference (LSM (STDE)) [1, 3]: 56.69 (17.665) Minutes
- Wake After Sleep Onset (WASO) Drug Effect Difference (LSM (STDE)) [1, 3]: −38.46 (8.222) Minutes
- Latency to Persistent Sleep LSM Change from Baseline (STDE) ([1]; Table 4 summary, 10 mg oral): −32.3 (4.6) min.
- Latency to Persistent Sleep Treatment Period Mean (SD) ([1]; Table 4 summary, 10 mg oral): 18.8 (15.6)) min.
- Latency to Persistent Sleep LSM Effect Difference (STDE) ([1]; Table 4 summary, versus placebo, 10 mg oral): −17.4 (6.3) min.
- Wake After Sleep Onset LSM Change from Baseline (STDE) ([1]; Table 6 summary, 10 mg oral): −50.0 (6.0) min.
- Wake After Sleep Onset Treatment Period Mean (SD) ([1]; Table 6 summary, 10 mg oral): 26.1 (16.2) min.
- Wake After Sleep Onset LSM Effect Difference (STDE) ([1]; Table 6 summary, versus placebo, 10 mg oral): −38.5 (8.2) min.
- Total Sleep Time LSM Change from Baseline (STDE) ([1]; Table 8 summary, 10 mg oral): 69.4 (12.9) min.
- Total Sleep Time Treatment Period Mean (SD) ([1]; Table 8 summary, 10 mg oral): 432.0 (35.1) min.
- Total Sleep Time LSM Effect Difference (STDE) ([1]; Table 8 summary, versus placebo, 10 mg oral): 56.7 min. and 56.7 (17.7) min.
- Latency to Persistent Sleep (LPS) Maximum [1, 4]: 58.0 min
- Latency to Persistent Sleep (LPS) Mean (SD) [1, 4]: 25.68 (15.691) Minutes
- Latency to Persistent Sleep (LPS) Median [1, 4]: 24.50 min
- Latency to Persistent Sleep (LPS) Minimum [1, 4]: 6.0 min
- Total Sleep Time (TST) Maximum [1, 4]: 469.0 min
- Total Sleep Time (TST) Mean (SD) [1, 4]: 424.00 (32.530) Minutes
- Total Sleep Time (TST) Median [1, 4]: 419.50 min
- Total Sleep Time (TST) Minimum [1, 4]: 358.5 min
- Wake After Sleep Onset (WASO) Maximum [1, 4]: 111.5 min
- Wake After Sleep Onset (WASO) Mean (SD) [1, 4]: 35.95 (29.815) Minutes
- Wake After Sleep Onset (WASO) Median [1, 4]: 29.50 min
- Wake After Sleep Onset (WASO) Minimum [1, 4]: 7.5 min
- Latency to Persistent Sleep (LPS) Maximum [1, 5]: 105.0 min
- Latency to Persistent Sleep (LPS) Mean (SD) [1, 5]: 20.73 (29.755) Minutes
- Latency to Persistent Sleep (LPS) Median [1, 5]: 15.00 min
- Latency to Persistent Sleep (LPS) Minimum [1, 5]: 0.0 min
- Total Sleep Time (TST) Maximum [1, 5]: 459.0 min
- Total Sleep Time (TST) Mean (SD) [1, 5]: 439.82 (19.572) Minutes
- Total Sleep Time (TST) Median [1, 5]: 443.00 min
- Total Sleep Time (TST) Minimum [1, 5]: 387.5 min
- Wake After Sleep Onset (WASO) Maximum [1, 5]: 52.0 min
- Wake After Sleep Onset (WASO) Mean (SD) [1, 5]: 25.68 (12.515) Minutes
- Wake After Sleep Onset (WASO) Median [1, 5]: 25.50 min
- Wake After Sleep Onset (WASO) Minimum [1, 5]: 4.0 min
- Latency to Persistent Sleep (LPS) Maximum [1, 6]: 46.0 min
- Latency to Persistent Sleep (LPS) Mean (SD) [1, 6]: 12.75 (14.425) Minutes
- Latency to Persistent Sleep (LPS) Median [1, 6]: 9.00 min
- Latency to Persistent Sleep (LPS) Minimum [1, 6]: 0.0 min
- Total Sleep Time (TST) Maximum [1, 6]: 458.5 min
- Total Sleep Time (TST) Mean (SD) [1, 6]: 416.88 (101.558) Minutes
- Total Sleep Time (TST) Median [1, 6]: 453.00 min
- Total Sleep Time (TST) Minimum [1, 6]: 166.0 min
- Wake After Sleep Onset (WASO) Maximum [1, 6]: 22.5 min
- Wake After Sleep Onset (WASO) Mean (SD) [1, 6]: 15.63 (4.299) Minutes
- Wake After Sleep Onset (WASO) Median [1, 6]: 15.75 min
- Wake After Sleep Onset (WASO) Minimum [1, 6]: 9.5 min
- Latency to Persistent Sleep (LPS) Maximum [1, 7]: 29.5 min
- Latency to Persistent Sleep (LPS) Mean (SD) [1, 7]: 12.50 (9.350) Minutes
- Latency to Persistent Sleep (LPS) Median [1, 7]: 11.50 min
- Latency to Persistent Sleep (LPS) Minimum [1, 7]: 0.5 min
- Total Sleep Time (TST) Maximum [1, 7]: 459.5 min
- Total Sleep Time (TST) Mean (SD) [1, 7]: 447.50 (8.594) Minutes
- Total Sleep Time (TST) Median [1, 7]: 450.25 min
- Total Sleep Time (TST) Minimum [1, 7]: 436.0 min
- Wake After Sleep Onset (WASO) Maximum [1, 7]: 38.5 min
- Wake After Sleep Onset (WASO) Mean (SD) [1, 7]: 23.44 (8.946) Minutes
- Wake After Sleep Onset (WASO) Median [1, 7]: 22.75 min
- Wake After Sleep Onset (WASO) Minimum [1, 7]: 12.5 min
- Latency to Persistent Sleep (LPS) LSM (STDE) [1, 8]: 18.14 (4.579) Minutes
- Latency to Persistent Sleep (LPS) Maximum [1, 8]: 70.25 min
- Latency to Persistent Sleep (LPS) Mean (SD) [1, 8]: 18.750 (15.6310) Minutes
- Latency to Persistent Sleep (LPS) Median [1, 8]: 15.000 min
- Latency to Persistent Sleep (LPS) Minimum [1, 8]: 2.00 min
- Total Sleep Time (TST) LSM (STDE) [1, 8]: 431.09 (12.869) Minutes
- Total Sleep Time (TST) Maximum [1, 8]: 464.00 min
- Total Sleep Time (TST) Mean (SD) [1, 8]: 432.026 (35.1088) Minutes
- Total Sleep Time (TST) Median [1, 8]: 443.500 min
- Total Sleep Time (TST) Minimum [1, 8]: 309.00 min
- Wake After Sleep Onset (WASO) LSM (STDE) [1, 8]: 25.28 (5.990) Minutes
- Wake After Sleep Onset (WASO) Maximum [1, 8]: 51.75 min
- Wake After Sleep Onset (WASO) Mean (SD) [1, 8]: 26.066 (16.2181) Minutes
- Wake After Sleep Onset (WASO) Median [1, 8]: 22.250 min
- Wake After Sleep Onset (WASO) Minimum [1, 8]: 11.00 min
- Latency to Persistent Sleep LSM decrease effect ([1]; treatment group versus placebo): 17.4 min
- Wake After Sleep Onset LSM decrease effect ([1]; treatment group versus placebo): 38.5 min
- effect on percentage of time spent in REM sleep (rats; 10 mg/kg oral (FIG. 13B)): no significant effects
- percentage of time spent in wakefulness versus vehicle (rats; 10 mg/kg oral, 1 hour blocks at 2, 5, and 8 hours after dosing (FIG. 13A)): lower
- percentage amounts of wakefulness, REM sleep, and NREM sleep (rats; 10 mg/kg oral, 3 hour blocks (FIGS. 14A-14C)): no significant changes
- percentage of time spent in NREM sleep versus vehicle (rats; 10 mg/kg oral, at 2, 5, and 8 hours after dosing (FIG. 13C)): higher
- percentage of time spent in wakefulness versus vehicle (rats; 10 mg/kg oral, at 6 and 15 hours after dosing (FIG. 13A)): significantly increased
- percentage of time spent in NREM sleep versus vehicle (rats; 10 mg/kg oral, at 6 and 15 hours after dosing (FIG. 13C)): significantly decreased
- effect on percentage of time spent in REM sleep (rats; 100 mg/kg oral (FIG. 15B, 16B)): no significant effects
- percentage amount of NREM sleep versus vehicle (rats; 100 mg/kg oral, 3 hour blocks 0-3, 3-6, 6-9, and 15-18 hours (FIG. 16C)): significant decreases
- percentage amount of wakefulness versus vehicle (rats; 100 mg/kg oral, 3 hour blocks 0-3, 3-6, and 15-18 hours (FIG. 16A)): significant increases
- percentage of time spent in NREM sleep versus vehicle (rats; 100 mg/kg oral, at 3, 4, 5, 7, 17 and 18 hours after dosing (FIG. 15C)): significantly increased
- percentage of time spent in wakefulness versus vehicle (rats; 100 mg/kg oral, at 3, 5 and 17 hours after dosing (FIG. 15A)): significantly decreased
- overall sleep effect (rats; single 10 mg/kg oral dose): minor sleep-enhancing effects
- overall sleep effect (rats; single 100 mg/kg oral dose): significant sleep-enhancing effects
